The text below walks through data of BindingDB's records for doi:10.1021/jm980023c (F. Hoffmann-La Roche, 1998).

Test [1] addresses Beta-lactamase (Pseudomonas aeruginosa (strain ATCC 15692 / DSM 22644 / CIP 104116 / JCM 14847 / LMG 12228 / 1C / PRS 101 / PAO1), UniProt P24735). Kind of test: Deacylation of 18SH Beta-lactamase of Pseudomonas aeruginosa.
Test [2] deals with Beta-lactamase TEM-3 (Escherichia coli). The test is described as follows: Inhibitory activity against Escherichia coli TEM-3 Beta-lactamase.

In general, koff refers to the rate constant with which the complex falls apart. Lower therefore signals slow dissociation. Broadly, the IC50 is the concentration that gives 50% inhibition.

Chain of Beta-lactamase (P24735 whole entry): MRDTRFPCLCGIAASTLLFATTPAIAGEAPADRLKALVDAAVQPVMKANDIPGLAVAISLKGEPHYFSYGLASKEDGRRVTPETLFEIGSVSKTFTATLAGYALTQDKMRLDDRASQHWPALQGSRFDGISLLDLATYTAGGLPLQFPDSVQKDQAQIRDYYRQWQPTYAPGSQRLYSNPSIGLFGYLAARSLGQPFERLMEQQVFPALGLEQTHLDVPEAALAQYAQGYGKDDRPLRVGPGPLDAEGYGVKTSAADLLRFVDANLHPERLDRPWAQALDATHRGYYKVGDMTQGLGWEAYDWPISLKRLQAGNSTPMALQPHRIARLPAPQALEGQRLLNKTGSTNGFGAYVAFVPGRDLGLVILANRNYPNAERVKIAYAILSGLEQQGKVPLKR

Consider `O=C(NC1CCNCC1)N1CC[C@@H]2[C@H]1C(=O)N2S(=O)(=O)O` [Sodium; (1S,5R)-7-oxo-2-(piperidin-4-ylcarbamoyl)-2,6-diaza-bicyclo[3.2.0]heptane-6-sulfonate], for which the off-rate constant (koff) in test [1] came out at 0.0012 s⁻¹. The compound also gave a 50% inhibitory concentration (IC50) in test [2] of over 100 µM.

Consider `NC(=O)Nc1ccc(NC(=O)N2CC[C@@H]3[C@H]2C(=O)N3S(=O)(=O)O)cc1` [Sodium; (1S,5R)-7-oxo-2-(4-ureido-phenylcarbamoyl)-2,6-diaza-bicyclo[3.2.0]heptane-6-sulfonate], for which the IC50 in test [2] came out at 100 µM. In test [2], `NC(=O)c1ccc(NC(=O)N2CC[C@@H]3[C@H]2C(=O)N3S(=O)(=O)O)cc1` [Sodium; (1S,5R)-2-(4-carbamoyl-phenylcarbamoyl)-7-oxo-2,6-diaza-bicyclo[3.2.0]heptane-6-sulfonate] displayed an IC50 of over 100 µM. For `CC(C)(C)OC(=O)N1CCC[C@@H]2[C@H]1C(=O)N2S(=O)(=O)O` [Sodium; (1S,6R)-2-tert-butoxycarbonyl-8-oxo-2,7-diaza-bicyclo[4.2.0]octane-7-sulfonate], the off-rate (koff) in test [1] came out at 0.0007 s⁻¹. In addition, in test [2], the IC50 is over 100 µM. As for `NC(=O)c1ccc[n+](CC(=O)N2CC[C@@H]3[C@H]2C(=O)N3S(=O)(=O)[O-])c1`, the IC50 in test [2] is 0.7 µM.

Regarding `Cn1nnnc1SCC(=O)N1CC[C@@H]2[C@H]1C(=O)N2S(=O)(=O)O` [Sodium; (1S,5R)-2-[2-(1-methyl-1H-tetrazol-5-ylsulfanyl)-acetyl]-7-oxo-2,6-diaza-bicyclo[3.2.0]heptane-6-sulfonate], the IC50 in test [2] is over 100 µM. `NC(=O)c1cccc(NC(=O)N2CC[C@@H]3[C@H]2C(=O)N3S(=O)(=O)O)c1` [Sodium; (1S,5R)-2-(3-carbamoyl-phenylcarbamoyl)-7-oxo-2,6-diaza-bicyclo[3.2.0]heptane-6-sulfonate] came in with an IC50 in test [2] of 4 µM.

Consider `O=C(Nc1ccc(O)cc1)N1CC[C@@H]2[C@H]1C(=O)N2S(=O)(=O)O` [Sodium; (1S,5R)-2-(4-hydroxy-phenylcarbamoyl)-7-oxo-2,6-diaza-bicyclo[3.2.0]heptane-6-sulfonate], for which the half-inhibitory concentration (IC50) in test [2] was over 100 µM. With `Cn1nnnc1S[C@@H]1CN(C(=O)OCc2ccccc2)[C@@H]2C(=O)N(S(=O)(=O)O)[C@@H]21` [Sodium; (1S,4R,5S)-2-benzyloxycarbonyl-4-(1-methyl-1H-tetrazol-5-ylsulfanyl)-7-oxo-2,6-diaza-bicyclo[3.2.0]heptane-6-sulfonate], in test [2], half-maximal inhibition (IC50) was put at 0.035 µM. Compound `NC(C(=O)N1CC[C@@H]2[C@H]1C(=O)N2S(=O)(=O)O)c1ccc(O)cc1` (stereo partly drawn) [Sodium; (1S,5R)-2-[2-amino-2-(4-hydroxy-phenyl)-acetyl]-7-oxo-2,6-diaza-bicyclo[3.2.0]heptane-6-sulfonate] showed an IC50 in test [2] of over 100 µM.

For `Cc1nn(C)c(SCC(=O)N2CC[C@@H]3[C@H]2C(=O)N3S(=O)(=O)O)nc1=O` [Sodium; (1S,5R)-2-[2-(2,6-dimethyl-5-oxo-2,5-dihydro-[1,2,4]triazin-3-ylsulfanyl)-acetyl]-7-oxo-2,6-diaza-bicyclo[3.2.0]heptane-6-sulfonate], the IC50 in test [2] was over 100 µM.

`CC(C)(C)OC(=O)N1CC[C@@H]2[C@H]1C(=O)N2S(=O)(=O)O` [Sodium; (1S,5R)-2-tert-butoxycarbonyl-7-oxo-2,6-diaza-bicyclo[3.2.0]heptane-6-sulfonate]: in test [1], the “koff” value came out at 0.000037 s⁻¹. Besides, the IC50 in test [2] is over 100 µM. With `O=C(OCc1ccccc1)N1CC[C@@H]2[C@H]1C(=O)N2S(=O)(=O)O` [Sodium; (1S,5R)-2-benzyloxycarbonyl-7-oxo-2,6-diaza-bicyclo[3.2.0]heptane-6-sulfonate], the half-inhibitory concentration (IC50) in test [2] was over 100 µM. The same measure, in the same setting: the result for `Cn1ccnc1SCC(=O)N1CC[C@@H]2[C@H]1C(=O)N2S(=O)(=O)O` [Sodium; (1S,5R)-2-[2-(1-methyl-1H-imidazol-2-ylsulfanyl)-acetyl]-7-oxo-2,6-diaza-bicyclo[3.2.0]heptane-6-sulfonate] reads over 100 µM; that for `NC(=O)/C=C1\CN(C(=O)OCc2ccccc2)[C@@H]2C(=O)N(S(=O)(=O)O)[C@H]12` [Sodium; (1S,5R)-2-benzyloxycarbonyl-4-[1-carbamoyl-meth-(E)-ylidene]-7-oxo-2,6-diaza-bicyclo[3.2.0]heptane-6-sulfonate], 0.031 µM; that for `O=C1NCC[C@@H]1NC(=O)N1CC[C@@H]2[C@H]1C(=O)N2S(=O)(=O)O` [Sodium; (1S,5R)-7-oxo-2-((S)-2-oxo-pyrrolidin-3-ylcarbamoyl)-2,6-diaza-bicyclo[3.2.0]heptane-6-sulfonate], over 100 µM.

With `Cn1cnnc1SCC(=O)N1CC[C@@H]2[C@H]1C(=O)N2S(=O)(=O)O` [Sodium; (1S,5R)-2-[2-(4-methyl-4H-[1,2,4]triazol-3-ylsulfanyl)-acetyl]-7-oxo-2,6-diaza-bicyclo[3.2.0]heptane-6-sulfonate], in test [2], the IC50 is over 100 µM. On the same count and under the same terms, then `O=C(CNc1ccc(O)cc1)N1CC[C@@H]2[C@H]1C(=O)N2S(=O)(=O)O` [Sodium; (1S,5R)-2-[2-(4-hydroxy-phenylamino)-acetyl]-7-oxo-2,6-diaza-bicyclo[3.2.0]heptane-6-sulfonate], with 79.2 µM; and `O=C(OCc1ccccc1)N1C[C@H](F)[C@@H]2[C@H]1C(=O)N2S(=O)(=O)O` [Sodium; (1S,4S,5S)-2-benzyloxycarbonyl-4-fluoro-7-oxo-2,6-diaza-bicyclo[3.2.0]heptane-6-sulfonate], with 0.511 µM.
